# Assay results published in EP2800973B1 (priority 2012, dated 2013).
# Like-named read-outs stand apart in the source and are kept apart here.
# Tests used:
# BoCell™ model cell line = assay type: cell-based; settings: for increase in BoCell™ Assay sensitivity: Figure 1, 24 hr pre-treatment with drug, then BoNT/A containing drug for an additional 24 hr, YFP/CFP emission ratio
# neuroblastoma cells = settings: pretreatment of cells; 1990 JBC paper; cited from earlier work
# [1] = system: BoCell™ modified neuroblastoma cells; assay type: cell-based
compound,measurement,setting,value
Calphostin C,increase in BoCell™ Assay sensitivity,BoCell™ model cell line,increased sensitivity was not seen
same,increase in BoCell™ Assay sensitivity,BoCell™ model cell line; listed as calphostin,not
N=C(N)NCCNS(=O)(=O)c1cccc2cnccc12 [HA1004],morphologic changes in neuroblastoma cells,neuroblastoma cells,failed to induce morphologic changes
Nc1ncnc2c1nc(Br)n2[C@@H]1O[C@@H]2COP(=O)(O)O[C@H]2[C@H]1O [8-Bromoadenosine-cAMP],increase in BoCell™ Assay sensitivity,BoCell™ model cell line,increased sensitivity was not seen
same,increase in BoCell™ Assay sensitivity,BoCell™ model cell line; listed as 8-Br-cAMP,not
CC(C)Cn1c(=O)n(C)c(=O)c2[nH]cnc21 [IBMX],increase in BoCell™ Assay sensitivity,BoCell™ model cell line,not and increased sensitivity was not seen
"CCCC(=O)Nc1ncnc2c1ncn2[C@@H]1O[C@@H]2COP(=O)(O)O[C@H]2[C@H]1OC(=O)CCC [dibutyryl-cAMP, dibutyryl-cyclic AMP]",increase in BoCell™ Assay sensitivity,BoCell™ model cell line,increased sensitivity was not seen
same,increase in BoCell™ Assay sensitivity,BoCell™ model cell line; listed as db-cAMP,not
"CC1CNCCN1S(=O)(=O)c1cccc2cnccc12.Cl.Cl (centres unmarked) [H7, 1-(5-isoquinolinylsulfonyl)-2-methylpiperazine dichloride]",H7 concentration giving maximal effects,[1],ImM
same,neurite length and neurite number per cells,[1],rapid increases in both neurite length and neurite number per cells
same,reversibility of the phenotypic change,[1],"could be ""rescued"" by removal of the H7"
same,time and dose dependence of the H7 effect,[1],both time and dose-dependent
same,cell viability,BoCells,does not affect cell viability
same,increase in BoCell™ Assay sensitivity,BoCell™ model cell line,cause an increase in BoCell™ Assay sensitivity
same,"H7 effect on assay sensitivity, dose dependence","BoCell™ model cell line; Figure 2A, 24 hr pre-treatment, then BoNT/A with H7 for 24 hr",dose dependent
same,increase in sensitivity with multiple H7 lots,"BoCell™ model cell line; Figure 5, 0.75 mM H7 from three independent manufacturers, 24 hrs pre-incubation, then BoNT/A 24 hrs",all cause an increase in sensitivity
same,sensitivity of cells to BoNT/A treatment as measured by SNAP-25 reporter cleavage,BoCell™ model cell line; pretreatment of cells with H7,significantly increased
